What was measured:
[1] = ABTS.+ radical scavenging assay
Experimental: The assay was performed in a 96-well plate by serial dilution method. A 2 mM ABTS^.+ working solution was prepared in a phosphate buffer (Zheleva-Dimitrova et al [2010]).To this, 200 μL of aqueous potassium per sulfate (70 mM) solution was added and the solution was incubated for 24 h in the dark at room temperature to develop a blue-green color. To 30 μL of ABTS^.+ working solution, 50 μL of different concentrations (3.9–1000 μM) of the test sample solution and 170 μL of phosphate buffer (pH-7.4) were added in a well. The plate was then incubated in the dark at room temperature for 10 min. Then absorbance was measured at 690 nm using Elisa reader. Quercetin and ascorbic acid were used as standards. The percentage scavenging of ABTS^.+ was calculated using the formula, (Control Absorbance–Test Absorbance)*100/(Control Absorbance) and the anti-oxidant activity was expressed in terms of IC50 value.

[2] = tested on: normal epithelial kidney cells (Vero); test: MTT cytotoxicity assay on Vero; format: cell-based; details: 24 h, read-out: Inhibition of cell proliferation, IC50, Vero
Experimental: (§1) The monolayer cell culture was trypsinized and the cell count was adjusted to 5.0 × 10^5 cells/ml using respective media containing 10% FBS. To each well of the 96-well microtiter plate, 100 µL of the diluted cell suspension (50,000cells/well) was added. After 24 h, when a partial monolayer was formed, the supernatant was flicked off, the monolayer was then washed once again with the medium and 100 µL of different test concentrations of test drugs were added on to the partial monolayer in microtiter plates. The plates were then incubated at 37 °C for 24 h in 5% CO2 atmosphere. After incubation, the test solutions in the wells were discarded and 100 µL of MTT (5 mg/10 ml of MTT in PBS) was added to each well. The plates were then incubated for 4 h at 37 °C in 5% CO2 atmosphere. The supernatant was then removed and 100 µL of DMSO was added and the plates were gently shaken to solubilize the formed formazan. The absorbance was measured using a microtiter plate reader at a wavelength of 590 nm. The percentage growth inhibition was thus calculated using the following formula and the concentration of the test drug required to inhibit the cell growth by 50% (IC50) values is generated from the dose–response curves for each one of the cell lines (Meerloo et al. [2011]).
(§2) The test compounds were screened for their in vitro cytotoxicity by MTT assay against two cancer cell lines, namely MCF-7, HCT-116 and normal epithelial kidney cells (Vero). Doxorubicin was used as a reference standard.

[3] = tested on: CDK2 gene expression in HCT 116 cell lines; test: Semi-quantitative RT-PCR gene expression of CDK2; format: cell-based, Human; details: for Relative gene expression of CDK2: control 1.00
Experimental: HCT-116 cells were trypsinized and added to 1 ml TRIzol and vortexed. Samples were then allowed to stand for 5 min at room temperature. 0.2 ml of chloroform per 1 ml of TRIzol was added. The tube was later stoppered and shaken vigorously for 15 s and was allowed to stand at room temperature for 5 min. The resulting mixture was then centrifuged at 10,000×rpm for 15 min at […]. The upper aqueous phase was transferred to another clean tube followed by the addition of 0.5 ml of isopropanol per 1 ml of TRIzol. The contents were mixed gently by inverting the sample 5 times and incubated at room temperature for 5 min. Further, the tubes were centrifuged at 10,000×rpm for the next 10 min at […]. Later, the supernatant was discarded and the RNA pellet was washed by adding 1 ml of 70% ethanol. Further, the contents were mixed gently by inverting the sample for few times. It was again centrifuged for 5 min at 14,000×rpm at […]. In the later step, the supernatant was discarded by inverting the tube on a clean tissue paper. Later, the pellet was dried by incubating in a […] for 5 min at 55 °C. The pellet was then resuspended in 25 µL of DEPC (Diethyl pyro carbonate) treated water.
A semi-quantitative reverse transcriptase polymerase chain reaction (RT-PCR) was carried out using Techno Prime system to determine the levels of β-actin and CDK-2 and CyclinA mRNA expression. The cDNA was synthesized from 2 µg of RNA using the Verso cDNA synthesis kit (Thermo Fischer Scientific) with oligo dT (deoxy thymine) primer according to the manufacturer’s instructions. The reaction volume was set to 20 μL and the cDNA synthesis was performed at 42 °C for 60 min followed by RT inactivation at 85 °C for 5 min (Murakami [1996]).
The PCR mixture (final volume of 20 µL) contains 1 µL of cDNA, 10 µL of Red Taq Master Mix 2× (Ampliqon) and 1 µM of each complementary primer specific for CDK2 and CyclinA and β-actin (internal control) sequence. The samples are denatured at 95 °C for 5 min and amplified using 35 cycles of 95 °C for 30 s then again at 55 °C for 30 s and 72 °C for 1 min for β-actin; the […] annealing was finally set to 56 °C followed by the final elongation at 72 °C for 10 min. […] Ten microliters of the final amplification product are run on a 2% ethidium-stained agarose gel and photographed. Quantification of the results could be accomplished by measuring the optical density of the bands, using the computerized imaging program Image J. The values were normalized to β-actin intensity levels (Bookout and Mangelsdorf [2003]).

[4] = tested on: MCF-7; test: MTT cytotoxicity assay on MCF-7; format: cell-based; details: 24 h, read-out: Inhibition of cell proliferation, IC50, MCF-7
Experimental: as §1, §2

SMILES: COc1ccc(/C=C2\Oc3c(c(OC)cc(OC)c3C3=CCN(C(C)C)CC3)C2=O)cc1OC [NISOA4]
- IC50 [1]: 127 ± 12.5 µM
- IC50 [2]: > 200 µM
- Band intensity of PCR amplicon of genes, CDK2 ([3]; 12.5 μM): 16,091.61
- Normalized (CDK2 to β-actin) ([3]; 12.5 μM): 0.63
- expression of CDK2 (in words) ([3]; 12.5 μM and 25 μM, HCT 116): clear dose-dependent decrease
- Relative gene expression of CDK2 ([3]; 12.5 μM): 0.59
- Band intensity of PCR amplicon of genes, CDK2 ([3]; 25 μM): 13,190.418
- Normalized (CDK2 to β-actin) ([3]; 25 μM): 0.52
- Relative gene expression of CDK2 ([3]; 25 μM): 0.49
- IC50 [4]: 35.6 µM

Source: paper PMC9440176, “Novel benzylidene benzofuranone analogues as potential anticancer agents: design, synthesis and in vitro evaluation based on CDK2 inhibition assays” (3 Biotech, 2022)
